The values that follow come from US12116358B2, “Substituted indoles and methods of use thereof” (EPIZYME, INC., priority 2018, dated 2024).

Structures are written as SMILES. Where two headings read alike, the source gives them in different places.

For one assay, the system named is H3K36me3 in A549 cells. The assay can be described thus: In-Cell Western (ICW) assay of SETD2 inhibitors (A549 assay). In kind it is cell-based, human. The settings on record: A549 cells, read-out: SETD2 A549. Put shortly:
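A549 cells seeded at 4,000/well onto compound and incubated 3 days at 37° C. Methanol-fixed cells stained overnight at 4° C with anti-H3K36me3 (1:1000), then IRDye 800CW secondary with DRAQ5 DNA counterstain. Plates read by Licor imaging at 700 and 800 channels.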

A further assay concerns the target T1, SETD2(1434-1711) (Homo sapiens, UniProt Q9BYW2).
T1 construct: SETD2 (1434-1711) Assay; catalogue N/A
T1 sequence (Q9BYW2 1434-1711): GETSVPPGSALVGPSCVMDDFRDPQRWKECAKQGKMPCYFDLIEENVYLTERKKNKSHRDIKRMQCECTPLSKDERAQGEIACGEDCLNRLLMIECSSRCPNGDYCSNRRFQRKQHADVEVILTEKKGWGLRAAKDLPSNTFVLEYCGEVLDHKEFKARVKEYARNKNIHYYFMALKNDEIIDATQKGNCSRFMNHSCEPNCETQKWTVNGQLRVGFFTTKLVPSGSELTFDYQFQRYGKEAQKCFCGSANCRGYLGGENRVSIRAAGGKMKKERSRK
Put plainly: SETD2 (1434-1711) assay. In kind it is biochemical. The settings on record: read-out: SETD2 (1434-1711).

For `Cc1ccc(F)c2cc(C(=O)Nc3cccc(N4CCOCC4CCO)c3)[nH]c12` (stereo not shown) [compound 331], the IC50 in the assay on H3K36me3 in A549 cells (Homo sapiens) came out at 1.6 µM; on SETD2(1434-1711) it was 0.6 µM.
On to `Cc1ccc(F)c2cc(C(=O)Nc3cccc(N4CCCC4)c3)[nH]c12` [compound 332], for which the values for the IC50 in the assay on H3K36me3 in A549 cells and at SETD2(1434-1711) were 1.6 µM and 0.2 µM, respectively.
For `Cc1ccc(F)c2cc(C(=O)Nc3cc(Cl)cc(CN4CCOCC4)c3)[nH]c12` [compound 333], in that order: 1.6 µM and 0.3 µM.
For `Cc1cccnc1C(CCC(=O)N1CCOCC1)NC(=O)c1cc2c(F)ccc(C)c2[nH]1` (stereo not shown) [compound 334], the IC50 in the assay on H3K36me3 in A549 cells (Homo sapiens) was determined as 1.6 µM; on SETD2(1434-1711), 0.7 µM.
For `Cc1ccc(F)c2cc(C(=O)Nc3cccc(N4CCCC(N(C)C)C4)c3)[nH]c12` (stereo not shown) [compound 335], in that order: 1.6 µM and 0.08 µM.
Regarding `Cc1ccc(F)c2cc(C(=O)Nc3cccc(N4CCC(C(C)C)CC4)c3)[nH]c12` [compound 336], the IC50 was found to be 1.6 µM in the assay with H3K36me3 in A549 cells and 0.4 µM on SETD2(1434-1711).
The matching figures for `Cc1ccc(F)c2cc(C(=O)Nc3cccc(-c4c[nH]cn4)c3)[nH]c12` [compound 337]: 1.6 µM and 0.4 µM.
Consider `Cc1ccc(F)c2cc(C(=O)Nc3cc(N4CCN(C)CC4)c4nccn4c3)[nH]c12` [compound 338], for which the IC50 in the assay on H3K36me3 in A549 cells (Homo sapiens) amounted to 1.7 µM; on SETD2(1434-1711), 0.1 µM.
For `Cc1ccc(F)c2cc(C(=O)Nc3cc(Cl)cc([C@H]4CC[C@H](N(C)C)CC4)c3)[nH]c12` [compound 339], in that order: 1.7 µM and 0.04 µM.
With `Cc1ccc(F)c2cc(C(=O)Nc3cccc(CCO)c3)[nH]c12` [compound 341], the IC50 came out at 1.7 µM in the assay on H3K36me3 in A549 cells and 0.2 µM at SETD2(1434-1711).
Take `Cc1ccc(F)c2cc(C(=O)Nc3cccc(N(C)C4CCN(C)C4)c3)[nH]c12` (stereo not shown) [compound 342]: the results for the IC50 in the assay on H3K36me3 in A549 cells (Homo sapiens) and on SETD2(1434-1711) were 1.8 µM and 0.1 µM, respectively.
With `Cc1ccc(F)c2cc(C(=O)Nc3cccc(C4CCC(N(C)C)CC4)c3)[nH]c12` (stereo not shown) [compound 343], the IC50 with H3K36me3 in A549 cells was 1.8 µM; on SETD2(1434-1711), 0.08 µM.
The matching figures for `Cc1ccc(F)c2cc(C(=O)Nc3cccc(N4CCN(C)CC4)n3)[nH]c12` [compound 344]: 1.8 µM and 0.2 µM.
For the compound `Cc1ccc(F)c2cc(C(=O)Nc3cc(C#N)cc(N4CCC(N(C)C)CC4)c3)[nH]c12` [compound 345], the IC50 with H3K36me3 in A549 cells (Homo sapiens) stood at 1.8 µM; on SETD2(1434-1711), 0.06 µM.
For the compound `Cc1ccc(F)c2cc(C(=O)Nc3cccc(-c4ccc(CO)cc4)c3)[nH]c12` [compound 346], the IC50 stood at 1.8 µM in the assay with H3K36me3 in A549 cells and 0.1 µM at SETD2(1434-1711).
In the case of `Cc1ccc(F)c2cc(C(=O)Nc3cccc(N4CCC(N5CCC(N)CC5)C4)c3)[nH]c12` (stereo not shown) [compound 347], the values for the IC50 with H3K36me3 in A549 cells and at SETD2(1434-1711) were 1.9 µM and 0.003 µM, respectively.
The matching figures for `Cc1ccc(F)c2cc(C(=O)Nc3cccc(N4CC5CC4CN5C)c3)[nH]c12` (stereo not shown) [compound 348]: 1.9 µM and 0.07 µM.
For the compound `Cc1ccc(F)c2cc(C(=O)Nc3cc(N4CCN(C)CC4)c4ncccc4c3)[nH]c12` [compound 350], the IC50 is over 2 µM with H3K36me3 in A549 cells (Homo sapiens) and 0.08 µM on SETD2(1434-1711).
Turning to `Cc1ccc(F)c2cc(C(=O)Nc3cccc(N(C)C4CCN(C)CC4)c3)[nH]c12` [compound 351], the figures for the IC50 with H3K36me3 in A549 cells and on SETD2(1434-1711) were over 2 µM and 0.09 µM, respectively.
As to `Cc1ccc(F)c2cc(C(=O)Nc3cccc(CC4CCCN(C)C4)c3)[nH]c12` (stereo not shown) [compound 352], the IC50 in the assay with H3K36me3 in A549 cells (Homo sapiens) is over 2 µM; on SETD2(1434-1711), 0.1 µM.
Take `Cc1ccc(F)c2cc(C(=O)Nc3cc(F)cc([C@H]4CC[C@H](N5CCOCC5)CC4)c3)[nH]c12` [compound 353]: the IC50 in the assay with H3K36me3 in A549 cells was over 2 µM; at SETD2(1434-1711), 0.1 µM.
On to `Cc1ccc(F)c2cc(C(=O)Nc3cccc(-c4cc5ccccn5n4)c3)[nH]c12` [compound 354], for which the IC50 was over 2 µM in the assay on H3K36me3 in A549 cells and 0.3 µM on SETD2(1434-1711).
For `Cc1ccc(F)c2cc(C(=O)Nc3cc(N4CCN(C)CC4)n4ccnc4c3)[nH]c12` [compound 355], the IC50 was over 2 µM in the assay on H3K36me3 in A549 cells (Homo sapiens) and 0.5 µM at SETD2(1434-1711).
For `Cc1cccnc1C(Cc1cn(CC2CC2)cn1)NC(=O)c1cc2c(F)ccc(C)c2[nH]1` (stereo not shown) [compound 356], in that order: over 2 µM and 0.6 µM.
Turning to `Cc1ccc(F)c2cc(C(=O)Nc3cccc(Cc4ncc[nH]4)c3)[nH]c12` [compound 357], the IC50 with H3K36me3 in A549 cells was over 2 µM; at SETD2(1434-1711), 0.7 µM.
The matching figures for `Cc1cccnc1C(Cc1ccc(CN2CCOCC2)cc1)NC(=O)c1cc2c(F)ccc(C)c2[nH]1` (stereo not shown) [compound 358]: over 2 µM and 0.9 µM.
The matching figures for `CC(=O)N1CCN(C2CC(NC(=O)c3cc4c(F)ccc(C)c4[nH]3)CN(C)C2)CC1` (stereo not shown) [compound 360]: over 2 µM and 1.2 µM.
`Cc1ccc(F)c2cc(C(=O)NC3C(=O)NCCc4cccnc43)[nH]c12` (stereo not shown) [compound 361]: the values for the IC50 with H3K36me3 in A549 cells (Homo sapiens) and on SETD2(1434-1711) were over 2 µM and 1.3 µM, respectively.
The matching figures for `Cc1ccc(F)c2cc(C(=O)N[C@H]3CCC[C@H](N4CCCOCC4)C3)[nH]c12` [compound 362]: over 2 µM and 1.4 µM.
As for `CC(=O)N1CCN(C2COCC(NC(=O)c3cc4c(F)ccc(C)c4[nH]3)C2)CC1` (stereo not shown) [compound 363], the IC50 with H3K36me3 in A549 cells is over 2 µM; at SETD2(1434-1711), 1.5 µM.
The matching figures for `Cc1ccc(F)c2cc(C(=O)NC3CNCCc4ccccc43)[nH]c12` (stereo not shown) [compound 364]: over 2 µM and 2 µM.
The matching figures for `CC(=O)N1CC2CC(C1)N2c1cccc(NC(=O)c2cc3c(F)ccc(C)c3[nH]2)c1` [compound 365]: over 2 µM and 2.6 µM.
In the case of `CC(=O)N1CCC(N2CCCC(NC(=O)c3cc4c(F)ccc(C)c4[nH]3)C2)CC1` (stereo not shown) [compound 366], the IC50 was over 2 µM with H3K36me3 in A549 cells (Homo sapiens) and 3 µM on SETD2(1434-1711).
`Cc1ccc(F)c2cc(C(=O)NC3CCCN(C4CCN(C)C(=O)C4)C3)[nH]c12` (stereo not shown) [compound 367]: the IC50 in the assay on H3K36me3 in A549 cells is over 2 µM; at SETD2(1434-1711) it was 4.2 µM.
The matching figures for `Cc1ccc(F)c2cc(C(=O)NC3COCC(c4cncnc4)C3)[nH]c12` (stereo not shown) [compound 368]: over 2 µM and 6.1 µM.
The matching figures for `Cc1ccc(F)c2cc(C(=O)NC3CCCC(c4cncnc4)C3)[nH]c12` (stereo not shown) [compound 369]: over 2 µM and 6.3 µM.
For `Cc1ccc(F)c2cc(C(=O)NC3CCCC(N4CCCN(C)C(=O)C4)C3)[nH]c12` (stereo not shown) [compound 370], in that order: over 2 µM and 6.8 µM.
`Cc1ccc(F)c2cc(C(=O)Nc3ncc(C4CCN(C)CC4)[nH]3)[nH]c12` [compound 371]: the IC50 with H3K36me3 in A549 cells (Homo sapiens) is over 2 µM; at SETD2(1434-1711), over 10 µM.
For the compound `Cc1ccc(F)c2cc(C(=O)Nc3cccc(N4CCC(N(C)C)(C(F)(F)F)CC4)c3)[nH]c12` [compound 375], the IC50 with H3K36me3 in A549 cells is over 2 µM; at SETD2(1434-1711), over 10 µM.
For `CC(=O)N1CCN(C2CCC(NC(=O)c3cc4c(F)ccc(C)c4[nH]3)C2)CC1` (stereo not shown) [compound 376], in that order: over 2 µM and over 10 µM.
With `Cc1ccc(F)c2cc(C(=O)NC3CCCN(CC(=O)N(C)C)C3)[nH]c12` (stereo not shown) [compound 377], the IC50 is over 2 µM with H3K36me3 in A549 cells (Homo sapiens) and over 10 µM at SETD2(1434-1711).
